In PubChem BioAssay (NCI):
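Results reflect a 48-hour exposure of cells in 96-well plates to compound at five concentrations. GI50: concentration for 50% inhibition of growth. TGI: total growth inhibition.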

Assays:
Test in all cases: NCI tumour cell line growth inhibition, 48 h
SK-MEL-2 melanoma = test system: SK-MEL-2 melanoma
M14 melanoma = test system: M14 melanoma
T-47D breast = test system: T-47D breast
MOLT-4 leukemia = test system: MOLT-4 leukemia
UO-31 renal = test system: UO-31 renal
CCRF-CEM leukemia = test system: CCRF-CEM leukemia
SF-539 CNS = test system: SF-539 CNS
SNB-75 CNS = test system: SNB-75 CNS
SK-OV-3 ovarian = test system: SK-OV-3 ovarian
LOX IMVI melanoma = test system: LOX IMVI melanoma

SMILES	TGI (SK-MEL-2 melanoma)	TGI (M14 melanoma)	TGI (T-47D breast)	TGI (MOLT-4 leukemia)	TGI (UO-31 renal)	TGI (CCRF-CEM leukemia)	TGI (SF-539 CNS)	TGI (SNB-75 CNS)	TGI (SK-OV-3 ovarian)	TGI (LOX IMVI melanoma)	GI50 (SK-MEL-2 melanoma)	GI50 (T-47D breast)	GI50 (MOLT-4 leukemia)	GI50 (UO-31 renal)	GI50 (CCRF-CEM leukemia)	GI50 (SF-539 CNS)	GI50 (SNB-75 CNS)	GI50 (SK-OV-3 ovarian)	GI50 (LOX IMVI melanoma)
COc1ccc(N2CCN(c3ccc4c(c3)NCC(=O)N4)CC2)cc1	69.6 µM	> 100 µM	33.4 µM	> 100 µM	70.4 µM	> 100 µM	54.1 µM	93.8 µM	> 100 µM	> 100 µM	–	–	–	–	–	–	–	–	–
COCC(=O)[C@]1(O)Cc2c(O)c3c(c(O)c2[C@@H](OC2CC(N)C(O)C(C)O2)C1)C(=O)c1c(OC)cccc1C3=O (stereo partly drawn)	0.259 µM	0.275 µM	0.737 µM	0.054 µM	0.231 µM	0.4 µM	0.312 µM	0.161 µM	4.03 µM	0.148 µM	–	–	–	–	–	–	–	–	–
O=C1Nc2ccccc2NC1C1OC(c2ccccc2)=CC1=O (stereo not drawn)	> 100 µM	> 100 µM	> 100 µM	> 100 µM	> 100 µM	> 100 µM	> 100 µM	> 100 µM	> 100 µM	> 100 µM	–	–	–	–	–	–	–	–	–
Brc1cccc(C2(CCCC3(c4cccc(Br)n4)OCCO3)OCCO2)n1	> 100 µM	> 100 µM	> 100 µM	> 100 µM	> 100 µM	–	> 100 µM	84 µM	> 100 µM	> 100 µM	–	–	–	–	–	–	–	–	–
Oc1[nH]c2ccccc2c1N=NC(=S)N1CCCCCC1	5.72 µM	2.52 µM	17.6 µM	3.1 µM	3.08 µM	–	1.59 µM	4.34 µM	4.79 µM	2.41 µM	–	–	–	–	–	–	–	–	–
CCN(CC)C(=S)SNCCc1ccc(S(N)(=O)=O)cc1	> 86.7 µM	23.1 µM	45.1 µM	–	27 µM	36.8 µM	28.8 µM	27 µM	> 73.1 µM	33 µM	–	–	–	–	–	–	–	–	–
CCOC(=O)/C=C(/C(=O)OCC)n1c(=O)c(C)cn(C2CC(N=[N+]=[N-])C(CO)O2)c1=O (stereo not drawn)	72 µM	> 100 µM	> 100 µM	25.6 µM	> 100 µM	–	47.9 µM	> 100 µM	> 100 µM	> 100 µM	–	–	–	–	–	–	–	–	–
Cc1nnc(N)nc1/C=C\c1cccs1	30.5 µM	36.9 µM	> 100 µM	> 100 µM	40.9 µM	70.8 µM	–	–	> 100 µM	> 100 µM	–	–	–	–	–	–	–	–	–
CCCCCCC(CCl)c1sc(-c2csc(CCNC(=O)OC(C)(C)C)n2)nc1C(=O)OC (stereo not drawn)	29.6 µM	–	13 µM	24.2 µM	67.8 µM	> 100 µM	44.4 µM	–	88.2 µM	25.9 µM	–	–	–	–	–	–	–	–	–
C=CCN1CC2CN=NC2(C#N)C1 (stereo not drawn)	> 100 µM	–	> 100 µM	> 100 µM	> 100 µM	> 100 µM	–	> 100 µM	–	> 100 µM	–	–	–	–	–	–	–	–	–
CC(NC(=O)C(C)C(=O)NCc1ccc(C(F)(F)F)cc1)C(N)=O (stereo not drawn)	> 100 µM	> 100 µM	> 100 µM	> 100 µM	> 100 µM	> 100 µM	> 100 µM	> 100 µM	> 100 µM	–	–	–	–	–	–	–	–	–	–
Oc1c(I)cc(I)cc1CNCCCN(Cc1ccccn1)Cc1ccccn1	2.91 µM	–	5.83 µM	2.92 µM	1.46 µM	50 µM	1.61 µM	4.32 µM	2.18 µM	1.77 µM	1.18 µM	1.49 µM	1.18 µM	0.786 µM	1.54 µM	0.863 µM	0.836 µM	1.01 µM	0.926 µM
c1ccc(C(CCN2CCCC2)c2ccccn2)cc1 (stereo not drawn)	> 100 µM	> 100 µM	> 100 µM	–	> 100 µM	–	–	> 100 µM	> 100 µM	> 100 µM	–	–	–	–	–	–	–	–	–
C/C=C/C=C/C1=NN(c2cccc(S(=O)(=O)O)c2)C2(C1)SCC(=O)N2c1nc2ccccc2s1 (stereo not drawn)	> 100 µM	> 100 µM	> 100 µM	> 100 µM	> 100 µM	77.7 µM	> 100 µM	> 100 µM	–	51.8 µM	–	–	–	–	–	–	–	–	–
c1ccc(C(=NNc2nc3ccccc3[nH]2)c2ccccn2)nc1	> 100 µM	1.84 µM	> 100 µM	0.062 µM	1.78 µM	0.257 µM	0.546 µM	–	0.828 µM	27.8 µM	–	–	–	–	–	–	–	–	–
Cc1ccc(S(=O)(=O)n2cc(-c3cnc(N)c(Br)n3)c3ccccc32)cc1	> 100 µM	> 55.1 µM	> 100 µM	10.7 µM	> 100 µM	–	> 23.3 µM	> 22.5 µM	> 100 µM	> 100 µM	–	–	–	–	–	–	–	–	–
NCCCCNCCCN	> 100 µM	> 100 µM	> 100 µM	> 100 µM	> 100 µM	–	> 100 µM	> 100 µM	> 100 µM	> 100 µM	–	–	–	–	–	–	–	–	–
Cc1cc(S(=O)(=O)O)ccc1N=Nc1ccc(N=Nc2c(O)ccc3ccccc23)c(C)c1	> 100 µM	> 100 µM	> 100 µM	> 100 µM	> 100 µM	60.8 µM	–	> 100 µM	> 100 µM	> 100 µM	–	–	–	–	–	–	–	–	–
